Experimental data published in the supplement of paper PMC8149375.

Tests used:
Settings in all cases: treatment: drug + dasatinib (fixed dose, not stated); 5 days
[1] = tested on: UO-31; experiment: AUC of dose-response viability curve, drug + dasatinib, normalised to DMSO (arbitrary (AUC of normalised viability)); higher = less growth inhibition
Description: (§1)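 Primary HTS combination arm: 8 RCC cell lines treated with 8 doses (up to 10 uM) of each library drug plus a fixed dose of dasatinib (dose not stated) for 5 days; viability read by CellTiter-Glo and normalised to DMSO. GI50 was fitted with XLfit, AUC is the area under the dose-response curve, and minimum viability is the lowest fraction of DMSO viability across doses.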

[2] = tested on: A498; experiment: as above
Description: as §1

[3] = tested on: CAKI-1; experiment: as above
Description: as §1

[4] = tested on: ACHN; experiment: as above
Description: as §1

[5] = tested on: SN12C; experiment: as above
Description: as §1

[6] = tested on: 769-P; experiment: as above
Description: as §1

[7] = tested on: TK-10; experiment: as above
Description: as §1

[8] = tested on: 786-O; experiment: as above
Description: as §1

[9] = tested on: UO-31; experiment: minimum viability across doses, drug + dasatinib, relative to DMSO (fraction); higher = less growth inhibition
Description: as §1

[10] = tested on: A498; experiment: as above
Description: as §1

[11] = tested on: CAKI-1; experiment: as above
Description: as §1

[12] = tested on: ACHN; experiment: as above
Description: as §1

[13] = tested on: SN12C; experiment: as above
Description: as §1

[14] = tested on: 769-P; experiment: as above
Description: as §1

[15] = tested on: TK-10; experiment: as above
Description: as §1

[16] = tested on: 786-O; experiment: as above
Description: as §1

[17] = tested on: UO-31; experiment: GI50 of drug in presence of dasatinib; higher = less potent
Description: as §1

[18] = tested on: A498; experiment: as above
Description: as §1

[19] = tested on: CAKI-1; experiment: as above
Description: as §1

[20] = tested on: ACHN; experiment: as above
Description: as §1

[21] = tested on: SN12C; experiment: as above
Description: as §1

[22] = tested on: 769-P; experiment: as above
Description: as §1

[23] = tested on: TK-10; experiment: as above
Description: as §1

[24] = tested on: 786-O; experiment: as above
Description: as §1

With Cc1cnc(Nc2ccc(OCCN3CCCC3)cc2)nc1Nc1cccc(S(=O)(=O)NC(C)(C)C)c1 + Cc1nc(Nc2ncc(C(=O)Nc3c(C)cccc3Cl)s2)cc(N2CCN(CCO)CC2)n1 [dasatinib] the “AUC of dose-response viability curve” value [1] was 3.1, the “AUC of dose-response viability curve” value [2] was 3.11 and the “AUC of dose-response viability curve” value [3] was 1.66. The “AUC of dose-response viability curve” value [4] was 1.25, the “AUC of dose-response viability curve” value [5] was 1.97 and the “AUC of dose-response viability curve” value [6] was 2.06. The “AUC of dose-response viability curve” value [7] was 1.82, the “AUC of dose-response viability curve” value [8] was 1.73 and the “minimum viability across doses” value [9] was 0.00873. For the same compound, the “minimum viability across doses” value [10] was 0.0831, the “minimum viability across doses” value [11] was 0.00319 and the “minimum viability across doses” value [12] was 0.00238. For the same compound, the “minimum viability across doses” value [13] was 0.00825, the “minimum viability across doses” value [14] was 0.0211 and the “minimum viability across doses” value [15] was 0.00313. The “minimum viability across doses” value [16] was 0.0103, the GI50 of drug [17] was 0.913 µM and the GI50 of drug [18] was 3.5 µM. For the same compound, the GI50 of drug [19] was 0.376 µM, the GI50 of drug [20] was 0.136 µM and the GI50 of drug [21] was 0.949 µM. The GI50 of drug [22] was 1.34 µM, the GI50 of drug [23] was 0.357 µM and the GI50 of drug [24] was 0.492 µM.
For Cc1cccc(-c2nc(C(C)(C)C)[nH]c2-c2ccc3nccnc3c2)n1 + Cc1nc(Nc2ncc(C(=O)Nc3c(C)cccc3Cl)s2)cc(N2CCN(CCO)CC2)n1 [dasatinib], the “AUC of dose-response viability curve” value [1] was 4.8, the “AUC of dose-response viability curve” value [2] was 3.7 and the “AUC of dose-response viability curve” value [3] was 2.29. The “AUC of dose-response viability curve” value [4] was 2.06, the “AUC of dose-response viability curve” value [5] was 2.18 and the “AUC of dose-response viability curve” value [6] was 2.34. The “AUC of dose-response viability curve” value [7] was 2.51, the “AUC of dose-response viability curve” value [8] was 2.16 and the “minimum viability across doses” value [9] was 0.824. For the same compound, the “minimum viability across doses” value [10] was 0.411, the “minimum viability across doses” value [11] was 0.486 and the “minimum viability across doses” value [12] was 0.559. For the same compound, the “minimum viability across doses” value [13] was 0.317, the “minimum viability across doses” value [14] was 0.476 and the “minimum viability across doses” value [15] was 0.61. The “minimum viability across doses” value [16] was 0.517, the GI50 of drug [17] was greater than 10 µM and the GI50 of drug [18] was 8.41 µM. It also gave a GI50 of drug [19] of 7.37 µM, a GI50 of drug [20] greater than 10 µM and a GI50 of drug [21] of 3.77 µM. It also gave a GI50 of drug [22] of 7.81 µM, a GI50 of drug [23] greater than 10 µM and a GI50 of drug [24] greater than 10 µM.
With Cc1[nH]c(/C=C2/C(=O)Nc3ccc(S(=O)(=O)N(C)c4cccc(Cl)c4)cc32)c(C)c1C(=O)N1CCN(C)CC1 + Cc1nc(Nc2ncc(C(=O)Nc3c(C)cccc3Cl)s2)cc(N2CCN(CCO)CC2)n1 [dasatinib] the “AUC of dose-response viability curve” value [1] was 3.25, the “AUC of dose-response viability curve” value [2] was 3.28 and the “AUC of dose-response viability curve” value [3] was 2.23. The “AUC of dose-response viability curve” value [4] was 1.62, the “AUC of dose-response viability curve” value [5] was 2.43 and the “AUC of dose-response viability curve” value [6] was 2.35. For the same compound, the “AUC of dose-response viability curve” value [7] was 2.82, the “AUC of dose-response viability curve” value [8] was 2.29 and the “minimum viability across doses” value [9] was 0.448. For the same compound, the “minimum viability across doses” value [10] was 0.605, the “minimum viability across doses” value [11] was 0.173 and the “minimum viability across doses” value [12] was 0.209. The “minimum viability across doses” value [13] was 0.443, the “minimum viability across doses” value [14] was 0.366 and the “minimum viability across doses” value [15] was 0.719. For the same compound, the “minimum viability across doses” value [16] was 0.279, the GI50 of drug [17] was 9.29 µM and the GI50 of drug [18] was greater than 10 µM. The GI50 of drug [19] was 3.07 µM, the GI50 of drug [20] was 0.022 µM and the GI50 of drug [21] was 6.07 µM. The GI50 of drug [22] was 5.76 µM, the GI50 of drug [23] was greater than 10 µM and the GI50 of drug [24] was 3.95 µM.
